For 25 compounds, inhibition and IC50 results are on record in ChEMBL document CHEMBL1926681, “Novel inhibitors of epidermal growth factor receptor: (4-(Arylamino)-7H-pyrrolo[2,3-d]pyrimidin-6-yl)(1H-indol-2-yl)methanones and (1H-indol-2-yl)(4-(phenylamino)thieno[2,3-d]pyrimidin-6-yl)methanones” (Bioorg Med Chem, 2012).

The target in test [1] is T1, Epidermal growth factor receptor (Homo sapiens, UniProt P00533). The test is described as follows: Inhibition of EGFR using poly(Glu,Tyr)4:1 as substrate and [gamma33P]ATP at 1 uM after 60 mins by scintillation counting.
Test [2] has as its target Receptor tyrosine-protein kinase erbB-2 (Homo sapiens) (UniProt P04626). The test is described as follows: Inhibition of Erbb2 using poly(Glu,Tyr)4:1 as substrate and [gamma33P]ATP at 1 uM after 60 mins by scintillation counting.
For test [3], the target named is Vascular endothelial growth factor receptor 2 (Homo sapiens) (UniProt P35968). The test can be described thus: Inhibition of VEGFR2 using poly(Glu,Tyr)4:1 as substrate and [gamma33P]ATP at 1 uM after 60 mins by scintillation counting.
Test [4] deals with Tyrosine-protein kinase ABL1 (Homo sapiens) (UniProt P00519). The test is described as follows: Inhibition of ABL1 using poly(Ala, Glu, Lys, Tyr) as substrate and [gamma33P]ATP at 1 uM after 60 mins by scintillation counting.
Test [5] concerns the target Hepatocyte growth factor receptor (Homo sapiens) (UniProt P08581). The test can be described thus: Inhibition of MET using poly(Ala, Glu, Lys, Tyr) as substrate and [gamma33P]ATP at 1 uM after 60 mins by scintillation counting.
The target in test [6] is T1, Epidermal growth factor receptor. The test can be described thus: Inhibition of EGFR using poly(Glu,Tyr)4:1 as substrate and [gamma33P]ATP after 60 mins by scintillation counting.

Each structure is given as a SMILES string. Active and inactive are the calls of the source. The rule behind the calls is not given here.

Chain of Hepatocyte growth factor receptor (Homo sapiens) (P08581 whole entry): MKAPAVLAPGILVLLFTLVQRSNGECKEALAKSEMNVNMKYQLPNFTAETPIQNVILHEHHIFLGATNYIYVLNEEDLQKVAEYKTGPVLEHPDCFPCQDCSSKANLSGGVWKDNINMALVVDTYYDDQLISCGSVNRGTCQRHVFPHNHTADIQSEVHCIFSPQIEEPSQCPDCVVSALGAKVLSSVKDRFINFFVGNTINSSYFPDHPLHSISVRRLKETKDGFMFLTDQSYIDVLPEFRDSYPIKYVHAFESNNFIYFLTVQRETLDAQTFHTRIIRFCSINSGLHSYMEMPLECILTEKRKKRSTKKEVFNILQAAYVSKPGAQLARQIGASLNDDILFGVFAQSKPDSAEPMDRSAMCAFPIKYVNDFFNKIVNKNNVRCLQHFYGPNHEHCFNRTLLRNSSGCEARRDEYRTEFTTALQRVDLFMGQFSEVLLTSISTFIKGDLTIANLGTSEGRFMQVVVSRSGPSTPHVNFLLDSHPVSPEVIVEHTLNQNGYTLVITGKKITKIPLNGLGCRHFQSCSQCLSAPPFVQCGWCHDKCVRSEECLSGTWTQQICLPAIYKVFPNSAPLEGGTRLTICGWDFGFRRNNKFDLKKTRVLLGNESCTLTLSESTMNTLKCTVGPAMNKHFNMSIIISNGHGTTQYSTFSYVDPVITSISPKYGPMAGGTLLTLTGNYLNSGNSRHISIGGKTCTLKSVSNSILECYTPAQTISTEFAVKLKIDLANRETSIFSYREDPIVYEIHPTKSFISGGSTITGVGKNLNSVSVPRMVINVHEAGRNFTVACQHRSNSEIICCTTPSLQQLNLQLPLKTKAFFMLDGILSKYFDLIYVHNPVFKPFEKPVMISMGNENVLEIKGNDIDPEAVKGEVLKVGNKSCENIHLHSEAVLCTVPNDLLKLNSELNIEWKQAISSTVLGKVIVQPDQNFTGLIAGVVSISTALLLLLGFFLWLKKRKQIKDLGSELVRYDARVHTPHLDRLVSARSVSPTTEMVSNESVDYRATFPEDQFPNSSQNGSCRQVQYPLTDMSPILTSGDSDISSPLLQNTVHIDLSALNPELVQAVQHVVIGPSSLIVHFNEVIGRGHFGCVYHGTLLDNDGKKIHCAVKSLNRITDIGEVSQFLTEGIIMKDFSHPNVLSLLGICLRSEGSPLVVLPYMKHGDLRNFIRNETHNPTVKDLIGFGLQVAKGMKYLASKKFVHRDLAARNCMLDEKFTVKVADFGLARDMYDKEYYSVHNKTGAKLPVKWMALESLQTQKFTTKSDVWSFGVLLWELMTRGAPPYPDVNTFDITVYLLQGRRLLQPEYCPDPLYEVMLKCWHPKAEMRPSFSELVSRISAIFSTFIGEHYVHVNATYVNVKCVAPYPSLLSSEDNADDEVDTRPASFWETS
Chain of Tyrosine-protein kinase ABL1 (Homo sapiens) (P00519 whole entry): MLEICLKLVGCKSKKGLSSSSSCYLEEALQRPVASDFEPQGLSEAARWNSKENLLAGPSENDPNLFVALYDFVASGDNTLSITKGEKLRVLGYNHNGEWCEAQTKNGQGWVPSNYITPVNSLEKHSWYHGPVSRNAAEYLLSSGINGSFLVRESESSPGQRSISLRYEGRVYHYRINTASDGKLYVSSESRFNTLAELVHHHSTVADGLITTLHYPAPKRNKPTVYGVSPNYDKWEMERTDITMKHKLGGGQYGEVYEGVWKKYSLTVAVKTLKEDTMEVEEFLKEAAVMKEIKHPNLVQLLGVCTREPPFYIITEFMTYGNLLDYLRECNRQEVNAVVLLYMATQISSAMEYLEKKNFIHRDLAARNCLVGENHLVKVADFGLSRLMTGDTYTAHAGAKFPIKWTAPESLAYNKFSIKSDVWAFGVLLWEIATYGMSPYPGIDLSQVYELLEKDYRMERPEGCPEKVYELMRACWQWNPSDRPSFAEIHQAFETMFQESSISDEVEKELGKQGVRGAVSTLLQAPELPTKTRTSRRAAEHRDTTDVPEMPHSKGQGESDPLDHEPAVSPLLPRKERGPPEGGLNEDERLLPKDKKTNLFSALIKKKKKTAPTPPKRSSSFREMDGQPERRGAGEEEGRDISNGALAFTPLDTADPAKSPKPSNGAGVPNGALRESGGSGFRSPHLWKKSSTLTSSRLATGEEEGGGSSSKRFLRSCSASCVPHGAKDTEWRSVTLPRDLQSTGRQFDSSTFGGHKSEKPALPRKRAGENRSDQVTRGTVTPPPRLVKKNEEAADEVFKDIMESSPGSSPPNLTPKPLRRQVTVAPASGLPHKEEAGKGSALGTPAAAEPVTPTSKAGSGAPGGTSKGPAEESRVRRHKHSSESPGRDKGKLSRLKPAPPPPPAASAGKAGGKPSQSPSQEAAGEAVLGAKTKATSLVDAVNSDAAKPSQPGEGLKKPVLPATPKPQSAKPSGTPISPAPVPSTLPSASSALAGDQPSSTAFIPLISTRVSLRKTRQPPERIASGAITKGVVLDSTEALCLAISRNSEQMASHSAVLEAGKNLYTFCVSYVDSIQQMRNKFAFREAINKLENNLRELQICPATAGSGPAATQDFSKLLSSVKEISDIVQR
Chain of Vascular endothelial growth factor receptor 2 (Homo sapiens) (P35968 whole entry): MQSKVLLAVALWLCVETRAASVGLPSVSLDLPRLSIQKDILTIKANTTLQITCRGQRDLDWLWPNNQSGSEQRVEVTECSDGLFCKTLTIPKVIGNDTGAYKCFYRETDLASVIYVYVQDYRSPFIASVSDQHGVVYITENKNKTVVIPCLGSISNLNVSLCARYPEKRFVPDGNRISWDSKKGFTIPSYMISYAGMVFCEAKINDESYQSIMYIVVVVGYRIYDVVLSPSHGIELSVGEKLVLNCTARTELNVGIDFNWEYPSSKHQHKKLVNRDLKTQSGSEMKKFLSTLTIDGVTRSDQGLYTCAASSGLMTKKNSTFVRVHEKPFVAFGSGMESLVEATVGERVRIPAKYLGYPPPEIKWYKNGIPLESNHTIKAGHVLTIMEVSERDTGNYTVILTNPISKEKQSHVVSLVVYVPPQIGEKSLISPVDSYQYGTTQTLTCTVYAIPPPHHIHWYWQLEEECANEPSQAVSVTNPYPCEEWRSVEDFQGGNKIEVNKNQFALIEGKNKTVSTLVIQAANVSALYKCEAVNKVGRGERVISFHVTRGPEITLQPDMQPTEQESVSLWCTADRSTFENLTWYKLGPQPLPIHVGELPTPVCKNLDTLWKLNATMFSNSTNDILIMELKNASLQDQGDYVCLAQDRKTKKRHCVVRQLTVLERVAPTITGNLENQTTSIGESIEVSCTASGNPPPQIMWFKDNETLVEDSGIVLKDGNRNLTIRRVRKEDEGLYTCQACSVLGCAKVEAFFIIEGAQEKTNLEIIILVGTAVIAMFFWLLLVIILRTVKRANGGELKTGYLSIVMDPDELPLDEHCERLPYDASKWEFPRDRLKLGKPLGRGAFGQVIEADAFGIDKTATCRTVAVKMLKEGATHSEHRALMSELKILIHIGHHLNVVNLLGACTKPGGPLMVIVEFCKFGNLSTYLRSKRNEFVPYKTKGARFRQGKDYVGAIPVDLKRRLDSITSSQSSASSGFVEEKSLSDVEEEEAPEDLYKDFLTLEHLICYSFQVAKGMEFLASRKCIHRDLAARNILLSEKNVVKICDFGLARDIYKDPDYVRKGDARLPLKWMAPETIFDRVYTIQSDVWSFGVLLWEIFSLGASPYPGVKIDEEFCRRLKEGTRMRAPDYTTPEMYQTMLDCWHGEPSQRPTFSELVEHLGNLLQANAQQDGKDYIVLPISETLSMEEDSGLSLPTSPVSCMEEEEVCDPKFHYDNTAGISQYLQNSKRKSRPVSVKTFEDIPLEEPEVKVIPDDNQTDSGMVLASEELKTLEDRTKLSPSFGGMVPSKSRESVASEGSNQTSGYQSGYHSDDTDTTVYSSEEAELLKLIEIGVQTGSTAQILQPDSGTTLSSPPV
T1 sequence (P00533 whole entry): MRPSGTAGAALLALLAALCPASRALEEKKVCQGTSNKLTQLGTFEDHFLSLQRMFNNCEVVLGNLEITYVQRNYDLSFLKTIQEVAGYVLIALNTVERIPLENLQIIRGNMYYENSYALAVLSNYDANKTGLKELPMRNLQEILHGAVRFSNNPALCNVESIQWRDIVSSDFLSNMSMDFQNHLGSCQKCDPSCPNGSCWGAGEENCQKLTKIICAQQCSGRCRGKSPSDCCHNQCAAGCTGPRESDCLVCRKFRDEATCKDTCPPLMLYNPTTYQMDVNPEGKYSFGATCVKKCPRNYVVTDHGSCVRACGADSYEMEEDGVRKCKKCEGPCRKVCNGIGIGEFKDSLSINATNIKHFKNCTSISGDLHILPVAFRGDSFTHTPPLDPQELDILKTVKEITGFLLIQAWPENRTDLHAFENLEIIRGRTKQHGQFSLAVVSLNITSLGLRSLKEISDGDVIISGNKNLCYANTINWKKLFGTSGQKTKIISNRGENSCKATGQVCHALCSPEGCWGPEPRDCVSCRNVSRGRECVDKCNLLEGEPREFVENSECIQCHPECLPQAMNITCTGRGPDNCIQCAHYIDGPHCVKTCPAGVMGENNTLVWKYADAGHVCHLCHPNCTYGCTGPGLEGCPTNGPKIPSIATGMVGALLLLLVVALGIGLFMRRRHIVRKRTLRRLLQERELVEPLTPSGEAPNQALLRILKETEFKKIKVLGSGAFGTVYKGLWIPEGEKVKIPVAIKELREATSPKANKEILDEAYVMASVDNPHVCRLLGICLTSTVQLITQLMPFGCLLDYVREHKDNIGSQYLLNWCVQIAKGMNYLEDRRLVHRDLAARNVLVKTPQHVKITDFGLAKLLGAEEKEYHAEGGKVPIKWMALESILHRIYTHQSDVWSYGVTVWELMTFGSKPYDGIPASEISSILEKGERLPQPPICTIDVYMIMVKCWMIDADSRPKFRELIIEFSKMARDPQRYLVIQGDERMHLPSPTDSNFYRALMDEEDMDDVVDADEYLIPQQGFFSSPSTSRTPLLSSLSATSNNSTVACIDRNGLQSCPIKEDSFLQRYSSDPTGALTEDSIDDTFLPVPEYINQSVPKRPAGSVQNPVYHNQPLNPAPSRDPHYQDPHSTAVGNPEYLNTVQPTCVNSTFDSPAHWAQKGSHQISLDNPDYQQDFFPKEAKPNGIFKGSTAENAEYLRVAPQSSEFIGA

Regarding `O=C(c1cc2ccccc2[nH]1)c1cc2c(Nc3ccc(OCc4cccc(F)c4)cc3Cl)ncnc2[nH]1`, the inhibition in test [1] amounted to 77%; in test [2], 13%; in test [3], 53%. The inhibition entry in test [4] and in test [5] was “inactive” in each case.
As for `O=C(c1cc2ccccc2[nH]1)c1cc2c(Nc3ccc(Br)cc3F)ncnc2s1`, the figures for the inhibition in test [1], in test [2] and in test [3] were 82%, 51% and 46%, respectively. Moreover, the inhibition result in test [4] and in test [5] was “inactive” each time.
With `O=C(c1cc2ccccc2[nH]1)c1cc2c(Nc3ccc(Cl)cc3)ncnc2[nH]1`, the inhibition in test [1] worked out at 68%; in test [2], 24%; in test [3], 47%. Besides, the inhibition entry in test [4] and in test [5] was “inactive” in each case.
In the case of `O=C(c1cc2ccccc2[nH]1)c1cc2c(Nc3cccc(I)c3)ncnc2s1`, the figures for the inhibition in test [1], in test [2] and in test [3] were 73%, 75% and 0%, respectively. In addition, the inhibition entry in test [4] and in test [5] was “inactive” each time.
Consider `O=C(c1cc2ccccc2[nH]1)c1cc2c(Nc3ccc(Br)cc3F)ncnc2[nH]1`, for which the inhibition in test [1] stood at 50%; in test [2] it was 14%; in test [3], 22%. Moreover, the inhibition result in test [4] and in test [5] was “inactive” in each case.
On to `O=C(c1cc2ccccc2o1)c1cc2c(Nc3ccc(F)c(Cl)c3)ncnc2s1`, for which the figures for the inhibition in test [1], in test [2] and in test [3] were 85%, 88% and 51%, respectively. Also, the inhibition result in test [4] and in test [5] was “inactive” in each case.
As to `C[C@@H](Nc1ncnc2sc(C(=O)c3cc4ccccc4[nH]3)cc12)c1ccccc1`, the inhibition in test [1] is 88%; in test [2], 61%; in test [3] it was 5%. Further, the inhibition result in test [4] and in test [5] was “inactive” throughout.
`O=C(c1cc2ccccc2[nH]1)c1cc2c(Nc3ccc(C(F)(F)F)cc3)ncnc2s1`: the values for the inhibition in test [1], in test [2] and in test [3] were 43%, 34% and 24%, respectively. The inhibition entry in test [4] and in test [5] was “inactive” in each case.
With `O=C(c1cc2ccccc2[nH]1)c1cc2c(Nc3cccc(C(F)(F)F)c3)ncnc2s1`, the inhibition in test [1] worked out at 79%; in test [2], 42%; in test [3], 29%. In addition, the inhibition result in test [4] and in test [5] was “inactive” each time.
Take `C#Cc1cccc(Nc2ncnc3[nH]c(C(=O)c4cc5ccccc5[nH]4)cc23)c1`: the inhibition is 83% in test [1], 70% in test [2] and 5% in test [3]. The inhibition result in test [4] and in test [5] was “inactive” each time.
Consider `O=C(c1cc2ccccc2s1)c1cc2c(Nc3ccc(F)c(Cl)c3)ncnc2s1`, for which the values for the inhibition in test [1], in test [2] and in test [3] were 99%, 76% and 22%, respectively. This compound had an IC50 in test [6] of 0.0108 µM. Further, the inhibition result in test [4] and in test [5] was “inactive” throughout.
For `O=C(c1cc2ccccc2[nH]1)c1cc2c(Nc3ccc(O)cc3)ncnc2[nH]1`, the inhibition in test [1] worked out at 57%; in test [2], 7%; in test [3] it was 31%. Moreover, the inhibition result in test [4] and in test [5] was “inactive” throughout.
On to `O=C(c1cc2ccccc2[nH]1)c1cc2c(Nc3ccc(Cl)cc3)ncnc2s1`, for which the inhibition in test [1] amounted to 80%; in test [2] it was 46%; in test [3] it was 19%. Moreover, the inhibition result in test [4] and in test [5] was “inactive” each time.
On to `CN(c1ccc(F)c(Cl)c1)c1ncnc2sc(C(=O)c3cc4ccccc4[nH]3)cc12`, for which the inhibition in test [1] stood at 22%; in test [2] it was 83%; in test [3] it was 23%. Besides, the inhibition result in test [4] and in test [5] was “inactive” in each case.
As to `O=C(c1cc2ccccc2[nH]1)c1cc2c(NCc3ccccc3)ncnc2[nH]1`, the inhibition was 55% in test [1] and 13% in test [3]. The inhibition entry in test [4] and in test [5] was “inactive” each time.
For the compound `O=C(c1cc2ccccc2[nH]1)c1cc2c(Nc3cccc(I)c3)ncnc2[nH]1`, the inhibition is 88% in test [1], 52% in test [2] and 10% in test [3]. Besides, the inhibition entry in test [4] and in test [5] was “inactive” in each case.
Take `O=C(c1cc2ccccc2[nH]1)c1cc2c(Nc3ccc(OCc4cccc(F)c4)cc3Cl)ncnc2s1`: the inhibition in test [1] is 91%; in test [2], 57%; in test [3], 29%. The half-inhibitory concentration (IC50) in test [6] was 0.0185 µM. The inhibition entry in test [4] and in test [5] was “inactive” throughout.
Turning to `O=C(c1cc2ccccc2[nH]1)c1cc2c(Nc3ccc(F)cc3)ncnc2s1`, the results for the inhibition in test [1], in test [2] and in test [3] were 96%, 50% and 45%, respectively. This compound yielded an IC50 in test [6] of 0.0437 µM. Further, the inhibition result in test [4] and in test [5] was “inactive” each time.
On to `C#Cc1cccc(Nc2ncnc3sc(C(=O)c4cc5ccccc5[nH]4)cc23)c1`, for which the values for the inhibition in test [1], in test [2] and in test [3] were 93%, 60% and 9%, respectively. This compound yielded an IC50 in test [6] of 0.0187 µM. In addition, the inhibition result in test [4] and in test [5] was “inactive” throughout.
As for `O=C(c1cc2ccccc2[nH]1)c1cc2c(NCc3ccccc3)ncnc2s1`, the inhibition was determined as 77% in test [1], 38% in test [2] and 17% in test [3]. The inhibition entry in test [4] and in test [5] was “inactive” throughout.
Regarding `O=C(c1cc2ccccc2[nH]1)c1cc2c(Nc3ccc(F)c(Cl)c3)ncnc2[nH]1`, the figures for the inhibition in test [1], in test [2] and in test [3] were 88%, 22% and 47%, respectively. The inhibition result in test [4] and in test [5] was “inactive” in each case.
Regarding `COc1ccc2[nH]c(C(=O)c3cc4c(Nc5cccc(I)c5)ncnc4[nH]3)cc2c1`, the inhibition amounted to 88% in test [1], 25% in test [2] and 17% in test [3]. The inhibition entry in test [4] and in test [5] was “inactive” in each case.
For `C[C@@H](Nc1ncnc2[nH]c(C(=O)c3cc4ccccc4[nH]3)cc12)c1ccccc1`, the inhibition in test [1] stood at 82%; in test [2] it was 37%; in test [3], 28%. Moreover, the inhibition entry in test [4] and in test [5] was “inactive” in each case.
With `O=C(c1cc2cc(O)ccc2[nH]1)c1cc2cncnc2[nH]1`, the inhibition in test [1], in test [2] and in test [3] was 0% in each case. Besides, the inhibition result in test [4] and in test [5] was “inactive” throughout.
As for `COc1cnc2[nH]c(C(=O)c3cc4c(Nc5cccc(I)c5)ncnc4[nH]3)cc2c1`, the inhibition in test [1] was 77%; in test [2], 20%; in test [3], 20%. In addition, the inhibition result in test [4] and in test [5] was “inactive” each time.
